Results taken from patent US20250197379A1 (KHR Biotec GmbH, priority 2021, published 2025).

Tests used:
elF4A1 = target: T1, elF4A1 (Homo sapiens, UniProt P60842); assay: Dual luciferase assay for cap dependent translation initiation (eIF4A); settings: Biochemical and cell based activity
T1 construct: endogenous in cells; host or cells: HeLa
Procedure: Dual luciferase assay for Cap-dependent translation initiation was performed in HeLa cells transfected with pFR_HCV_xb. […] After incubation, Dual luciferase reporter assay was performed according to the manufacturer's instruction and the luminescence was measured using a multiplate reader. Data were normalized to cells transfected with the indicated mutant and exposed to DMSO for 24 h. DMSO-treated cells were set as 1. The bars represent mean±SD from 3 independent experiments. The dot plot indicate the value from each experiment.

KRAS G12V = target: T2, KRAS G12V (Homo sapiens, UniProt P01116, G12V); assay: NanoBiT assay for RAS activation (KRAS G12V); settings: Biochemical and cell based activity
T2 construct: K, N and HRAS G12V (full length) was cloned with Xho I and Bgl I to LgBit; expressed in transfected cells; host or cells: HeLa
T2 sequence (P01116 1-188 isoform P01116-2 G12V): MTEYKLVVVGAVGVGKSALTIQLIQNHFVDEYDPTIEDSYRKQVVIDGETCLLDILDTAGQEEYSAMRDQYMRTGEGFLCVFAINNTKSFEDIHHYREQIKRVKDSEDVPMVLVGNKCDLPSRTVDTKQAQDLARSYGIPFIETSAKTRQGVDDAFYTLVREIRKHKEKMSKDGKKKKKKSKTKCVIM
Procedure: N-terminal LgBiT and C-terminal SmBiT construct was purchased from Promega and K, N and HRAS G12V (full length) was cloned with Xho I and Bgl I to LgBit and CRAF Ras binding domain (1-149) was cloned with EcoRI and Bgl II to SmBit. For transfections, 1 μg or 2 μg of (12 well/6 well) plasmids were transfected into cells with 0.5 mM of PEI reagent in 100 μl or 200 μl PBS. One day after transfection, cells were harvested and seeded into 96 well white plates (Greiner) or 384 well white plate (Greiner). After an additional day the medium was changed to serum free DMEM and the cells were incubated for 2 h with the compounds according to the invention. NanoGlo assay was performed according to the manufacturer's instructions. The luminescence was measured using Tecan infinite (Tecan).

In vitro DMPK: CLi Human = format: in vitro ADME

T1 sequence (P60842 whole entry): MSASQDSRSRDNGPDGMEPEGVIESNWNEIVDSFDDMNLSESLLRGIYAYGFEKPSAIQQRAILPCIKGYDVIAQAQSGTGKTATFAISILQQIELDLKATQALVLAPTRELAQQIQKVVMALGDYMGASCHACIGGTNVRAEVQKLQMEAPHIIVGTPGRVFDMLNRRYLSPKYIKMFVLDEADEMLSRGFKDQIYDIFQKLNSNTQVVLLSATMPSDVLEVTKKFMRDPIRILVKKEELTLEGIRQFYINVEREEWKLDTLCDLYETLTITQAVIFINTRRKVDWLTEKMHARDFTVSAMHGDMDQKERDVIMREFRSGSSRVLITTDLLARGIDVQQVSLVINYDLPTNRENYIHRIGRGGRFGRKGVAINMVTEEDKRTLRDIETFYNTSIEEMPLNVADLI

Row | IC50 (elF4A1) [nM] | IC50 (KRAS G12V) [nM] | SMILES | CLi Human (In vitro DMPK: CLi Human) [µL/min/mg]
1 | 22 | 41 | COc1cc(OC)c2c(c1)O[C@@]1(c3ccc(C#N)cc3)[C@H](c3cccc(F)c3)C[C@H](NC(=O)N3CC4(COC4)C3)[C@@]21O [Compound 47] | –
2 | 143 | 97 | COc1cc(OC)c2c(c1)O[C@@]1(c3ccc(Cl)cc3)[C@H](c3cccc(F)c3)C[C@H](NC(=O)N3CCC(N(C)C)CC3)[C@@]21O [Compound 40] | –
3 | 55 | 50 | COc1cc(OC)c2c(c1)O[C@@]1(c3ccc(Cl)cc3)[C@H](c3cccc(F)c3)C[C@H](NC(=O)N3CC(N(C)C)C3)[C@@]21O [Compound 41] | –
4 | 21 | 21 | COc1cc(OC)c2c(c1)O[C@@]1(c3ccc(C#N)cc3)[C@H](c3cccc(F)c3)C[C@H](NC(=O)N3CCN(C)CC3)[C@@]21O [Compound 38] | –
5 | 25 | 24 | COc1cc(OC)c2c(c1)O[C@@]1(c3ccc(C#N)cc3)[C@H](c3cccc(F)c3)C[C@H](NC(=O)N3CCC3)[C@@]21O [Compound 36] | –
6 | 54 | 48 | COc1cc(OC)c2c(c1)O[C@@]1(c3ccc(Cl)cc3)[C@H](c3cccc(F)c3)C[C@H](NC(=O)NCCO)[C@@]21O [Compound 42] | –
7 | 80 | 58 | COc1cc(OC)c2c(c1)O[C@@]1(c3ccc(Cl)cc3)[C@H](c3cccc(F)c3)C[C@H](NC(=O)N3CCOCC3)[C@@]21O [Compound 19] | –
8 | 80 | 57 | COc1cc(OC)c2c(c1)O[C@@]1(c3ccc(Cl)cc3)[C@H](c3cccc(F)c3)C[C@H](NC(=O)N3CC4CCC(C3)N4C)[C@@]21O [Compound 43] | –

Further lines, the compound ahead of its results:

Row | SMILES | IC50 (elF4A1) [nM] | IC50 (KRAS G12V) [nM] | CLi Human (In vitro DMPK: CLi Human) [µL/min/mg]
9 | COc1cc(OC)c2c(c1)O[C@@]1(c3ccc(Cl)cc3)[C@H](c3cccc(F)c3)C[C@H](NC(=O)N3CCS(=O)(=O)CC3)[C@@]21O [Compound 39] | 39 | 32 | –
10 | COc1cc(OC)c2c(c1)O[C@@]1(c3ccc(Cl)cc3)[C@H](c3cccc(F)c3)C[C@H](NC(=O)N3CCCC3)[C@@]21O (single isomer, unassigned) [Compound 5] | 60 | 95 | –
11 | CCN(CC)C(=O)N[C@H]1C[C@@H](c2cccc(F)c2)[C@]2(c3ccc(Cl)cc3)Oc3cc(OC)cc(OC)c3[C@]12O (single isomer, unassigned) [Compound 11] | 75 | 94 | –
12 | COc1cc(OC)c2c(c1)O[C@@]1(c3ccc(Cl)cc3)[C@H](c3cccc(F)c3)C[C@H](NC(=O)N3CCN(C)CC3)[C@@]21O (single isomer, unassigned) [Compound 2] | 84 | 79 | 5.5
13 | COc1cc(OC)c2c(c1)O[C@@]1(c3ccc(Cl)cc3)[C@H](c3cccc(F)c3)C[C@H](NC(=O)NC(C)C)[C@@]21O (single isomer, unassigned) [Compound 8] | 120 | 78 | 31
14 | COc1cc(OC)c2c(c1)O[C@@]1(c3ccc(C#N)cc3)[C@H](c3cccc(F)c3)C[C@H](NC(=O)N3CCOCC3)[C@@]21O [Compound 37] | 24 | 19 | 64
15 | COc1cc(OC)c2c(c1)OC1(c3ccc(Cl)cc3)[C@@H](c3cccc(F)c3)CC(NC(=O)N(C)C)C21O (single isomer, unassigned) [Compound C2, reference compound] | 63 | 55 | 290
